Where two headings read alike, the source gives them in different places.
Target: human Nav1.8 (Homo sapiens, UniProt Q9Y5Y9)
Assay: SyncroPatch384PE assay (automated patch clamp)
Format: cell-based
Details: human Nav1.8/b3 CHO cells
Procedure: Compounds were tested on recombinant human Nav1.8/b3 stably transfected CHO cells using the SyncroPatch384PE system (Nanion Technologies), an automated patch clamp device. Cells were cultured at 37° C./5% CO2 in Ham's F-12 supplemented with 10% fetal bovine serum, 100 U/mL penicillin G sodium, […] streptomycin sulfate and selection antibiotics (0.01 mg/mL Blasticidin, 0.4 mg/mL Zeocin and 0.25 mg/mL Hygromycin). On the day of the recordings, cells in culture dishes were washed twice with Hank's Balanced Salt Solution (HBSS) and treated with Accutase for approximately 20 minutes. Immediately before use in the SynchroPatch384PE using an 8-hole NPC-384 chip, the cells were washed in HBSS to remove the Accutase and re-suspended in extracellular solution. All experiments were performed at ambient temperature. Intracellular solution contained (mM): CsCl, 50; CsF, 90; MgCl2, 5; EGTA, 1; HEPES, 10; pH adjusted to 7.2 with CsOH. Extracellular solution contained (mM): NaCl, 137; KCl, 4.0; CaCl2), 3.8; MgCl2, 1; HEPES, 10; Glucose, 10; pH adjusted to 7.4 with NaOH. 100 nM tetrodotoxin (TTX) was added to the extracellular solution to block endogenous TTX-sensitive sodium currents.
Compounds were tested in quadruplicate in 0.3% DMSO and 0.03% pluronic Acid. Compounds were diluted 1:3.33 in extracellular solution to create an 8-point concentration response curve. Each plate contained a historical positive control and up to ten compounds. 300 μM tetracaine and 0.3% DMSO+0.03% pluronic acid were used as high and low controls respectively.
Whole cell patch clamp recordings were conducted according to Nanion's standard procedure for SyncroPatch384PE®. Cells were held at a holding potential of −120 mV. A depolarization step to 10 mV for 30 ms was applied (P1 measurement), followed by a hyperpolarization step to −100 mV for 100 ms. An inactivation step at −35 mV for 10 sec was applied before stepping to −100 mV for 20 ms, followed by a step to 10 mV for 30 ms (P2 measurement) and then back to −100 mV for 30 ms. Sweep interval was 15 sec. Following establishment of the whole-cell configuration in extracellular solution, cells were washed in extracellular solution containing 0.3% DMSO and 0.03% pluronic acid to stabilize the baseline current. Compounds were then applied by the SynchroPatch384 PE system into each well and the current was recorded for five minutes in extracellular solution, followed by application of tetracaine to achieve full block at the end of experiment. The potency of the compounds was assessed on two read-outs, resting state block (P1 measurement) or inactivated state block (P2 measurement) to obtain IC50 values. Values were normalized to high (tetracaine) and low (DMSO+pluronic acid) controls.
Examples 1 to 219 and Examples 225 to 236 are assayed using SyncroPatch384PE assay described above.

[1] = inactivated state block (P2 measurement), read-out: P2 IC50
[2] = resting state block (P1 measurement), read-out: P1 IC50

human Nav1.8, sequence (Q9Y5Y9 whole entry): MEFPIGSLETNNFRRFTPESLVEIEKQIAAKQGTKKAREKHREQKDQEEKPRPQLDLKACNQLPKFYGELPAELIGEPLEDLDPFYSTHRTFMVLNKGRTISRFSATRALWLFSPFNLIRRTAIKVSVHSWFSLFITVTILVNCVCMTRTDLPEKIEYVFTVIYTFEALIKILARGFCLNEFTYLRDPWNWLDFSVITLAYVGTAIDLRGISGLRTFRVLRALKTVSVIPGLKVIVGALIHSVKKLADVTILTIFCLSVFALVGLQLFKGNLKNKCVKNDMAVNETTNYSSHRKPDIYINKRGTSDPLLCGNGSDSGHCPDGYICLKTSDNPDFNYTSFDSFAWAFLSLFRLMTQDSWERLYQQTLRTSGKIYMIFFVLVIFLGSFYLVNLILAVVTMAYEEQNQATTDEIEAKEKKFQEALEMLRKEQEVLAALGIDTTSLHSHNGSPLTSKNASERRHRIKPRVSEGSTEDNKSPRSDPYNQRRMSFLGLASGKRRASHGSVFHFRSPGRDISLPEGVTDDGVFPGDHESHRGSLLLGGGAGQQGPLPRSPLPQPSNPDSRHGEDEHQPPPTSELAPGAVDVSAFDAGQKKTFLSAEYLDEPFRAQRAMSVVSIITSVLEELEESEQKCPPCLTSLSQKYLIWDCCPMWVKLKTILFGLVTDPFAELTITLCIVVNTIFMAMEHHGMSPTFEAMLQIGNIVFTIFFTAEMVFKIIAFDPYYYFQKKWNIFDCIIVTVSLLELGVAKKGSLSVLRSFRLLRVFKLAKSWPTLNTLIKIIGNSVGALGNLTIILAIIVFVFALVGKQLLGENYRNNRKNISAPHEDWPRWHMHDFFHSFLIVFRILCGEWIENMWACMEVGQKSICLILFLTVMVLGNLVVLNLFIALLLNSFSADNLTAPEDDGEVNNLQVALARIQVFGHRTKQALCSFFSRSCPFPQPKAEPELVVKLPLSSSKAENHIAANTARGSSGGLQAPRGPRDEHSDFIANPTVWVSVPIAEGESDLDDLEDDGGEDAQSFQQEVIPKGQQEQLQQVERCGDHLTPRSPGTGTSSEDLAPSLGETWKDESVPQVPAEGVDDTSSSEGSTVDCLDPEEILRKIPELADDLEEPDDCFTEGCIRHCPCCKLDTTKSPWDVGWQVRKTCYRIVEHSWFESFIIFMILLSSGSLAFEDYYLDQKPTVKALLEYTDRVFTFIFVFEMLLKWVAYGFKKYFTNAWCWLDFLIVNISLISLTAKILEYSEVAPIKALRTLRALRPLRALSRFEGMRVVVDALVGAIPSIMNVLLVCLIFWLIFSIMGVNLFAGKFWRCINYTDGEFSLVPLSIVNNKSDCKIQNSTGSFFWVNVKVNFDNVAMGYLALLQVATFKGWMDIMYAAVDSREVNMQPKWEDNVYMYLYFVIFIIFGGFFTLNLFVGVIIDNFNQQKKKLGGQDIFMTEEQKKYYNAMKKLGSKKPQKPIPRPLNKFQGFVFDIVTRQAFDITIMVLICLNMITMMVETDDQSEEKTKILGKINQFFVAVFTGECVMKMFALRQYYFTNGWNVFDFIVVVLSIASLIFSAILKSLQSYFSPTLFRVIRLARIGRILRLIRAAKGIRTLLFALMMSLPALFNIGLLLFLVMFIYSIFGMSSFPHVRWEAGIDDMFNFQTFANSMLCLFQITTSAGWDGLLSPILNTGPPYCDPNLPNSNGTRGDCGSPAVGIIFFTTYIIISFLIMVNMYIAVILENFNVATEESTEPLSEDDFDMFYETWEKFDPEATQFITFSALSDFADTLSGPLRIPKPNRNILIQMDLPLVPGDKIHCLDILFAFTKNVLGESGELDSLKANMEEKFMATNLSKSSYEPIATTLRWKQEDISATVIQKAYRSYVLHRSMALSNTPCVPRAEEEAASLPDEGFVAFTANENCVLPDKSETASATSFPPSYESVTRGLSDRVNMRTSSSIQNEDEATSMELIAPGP

Row | SMILES | IC50 [1] [nM] | IC50 [2] [nM]
1 | C[S@@](=N)(=O)c1cccc(NC(=O)c2cc(Cl)c(C(F)(F)F)cc2N2CCO[C@H](C(F)(F)F)C2)c1 [Example 215, 5-chloro-N-(3-((R)—S-methylsulfonimidoyl)phenyl)-4-(trifluoromethyl)-2-((S)-2-(trifluoromethyl)morpholino)benzamide] | 5 to 50 | 5 to 50
2 | Cc1c(-c2cnn(C)c2)cnc(N2CCCC(F)(F)CC2)c1C(=O)Nc1cccc(S(=N)(N)=O)c1 (stereo not shown) [Example 165, 2-(4,4-difluoroazepan-1-yl)-4-methyl-5-(1-methyl-1H-pyrazol-4-yl)-N-(3-sulfamidimidoylphenyl)nicotinamide] | 5 to 50 | 5 to 50
3 | O=C(Nc1ccnnc1)c1nnc(C(F)(F)F)cc1N1CCCC(F)(F)CC1 [Example 32, 4-(4,4-Difluoroazepan-1-yl)-N-(pyridazin-4-yl)-6-(trifluoromethyl)pyridazine-3-carboxamide] | > 200 | > 200
4 | Cc1c(C#N)c(C(F)(F)F)nc(N2CCCC(F)(F)CC2)c1C(=O)Nc1cccc([S@@](C)(=O)=NC(=O)C2(N)CC2)c1 [Example 66, (R)-N-(3-(N-(1-aminocyclopropane-1-carbonyl)-S-methylsulfonimidoyl)phenyl)-5-cyano-2-(4,4-difluoroazepan-1-yl)-4-methyl-6-(trifluoromethyl)nicotinamide] | ≤ 5 | ≤ 5
5 | Cc1ccc(-c2cnc(N3CCCC(F)(F)CC3)c(C(=O)Nc3cccc(S(C)(=N)=O)c3)c2C)cc1 (stereo not shown) [Example 96, 2-(4,4-difluoroazepan-1-yl)-4-methyl-N-(3-(S-methylsulfonimidoyl)phenyl)-5-(p-tolyl)nicotinamide] | ≤ 5 | ≤ 5
6 | Cc1nc(N2CCCC(F)(F)CC2)c(C(=O)Nc2cccc(S(=N)(N)=O)c2)cc1C(F)(F)F (stereo not shown) [Example 121, 2-(4,4-difluoroazepan-1-yl)-6-methyl-N-(3-sulfamidimidoylphenyl)-5-(trifluoromethyl)nicotinamide] | ≤ 5 | ≤ 5
7 | Cc1c(-c2ccccn2)cnc(N2CCCC(F)(F)CC2)c1C(=O)Nc1cccc(S(C)(=N)=O)c1 (stereo not shown) [Example 99, 6 C(4,4-difluoroazepan-1-yl)-4methyl-N-(3-(S-methylsulfonimidoyl)phenyl)-[2,3bipyridine]-5carboxamide] | 100 to 200 | 100 to 200
8 | Cc1n[nH]c(C)c1-c1cnc(N2CCCC(F)(F)CC2)c(C(=O)Nc2cccc([S@](C)(=N)=O)c2)c1C [Example 152, (R)-2-(4,4-difluoroazepan-1-yl)-5-(3,5-dimethyl-1H-pyrazol-4-yl)-4-methyl-N-(3-(S-methylsulfonimidoyl)phenyl)nicotinamide] | > 200 | > 200
9 | CNCC(=O)N=[S@](C)(=O)c1cccc(NC(=O)c2c(N3CCCC(F)(F)CC3)ccc(-c3cnn(C)c3)c2C)c1 [Example 175, (R)-6-(4,4-difluoroazepan-1-yl)-2-methyl-3-(1-methyl-1H-pyrazol-4-yl)-N-(3-(S-methyl-N-(methylglycyl)sulfonimidoyl)phenyl)benzamide] | 5 to 50 | 5 to 50
10 | Cc1c(C(F)(F)F)cnc(N2CCCC(F)(F)CC2)c1C(=O)Nc1cccc([S@@](C)(=O)=NC(=O)[C@@H](C)O)c1 [Example 193, 2-(4,4-difluoroazepan-1-yl)-N-(3-((R)-N-((R)-2-hydroxypropanoyl)-S-methylsulfonimidoyl)phenyl)-4-methyl-5-(trifluoromethyl)nicotinamide] | ≤ 5 | ≤ 5
11 | C[S@@](=N)(=O)c1cccc(NC(=O)c2cc(Cl)c(C(F)(F)F)cc2N2CCC(C(F)(F)F)CC2)c1 [Example 219, (R)-5-chloro-N-(3-(S-methylsulfonimidoyl)phenyl)-4-(trifluoromethyl)-2-(4-(trifluoromethyl)piperidin-1-yl)benzamide] | ≤ 5 | ≤ 5
12 | CNCC(=O)N=[S@](C)(=O)c1cccc(NC(=O)c2c(N3CCCC(F)(F)CC3)nc(C(F)(F)F)c(C#N)c2C)c1 [Example 65, (R)-5-cyano-2-(4,4-difluoroazepan-1-yl)-4-methyl-N-(3-(S-methyl-N-(methylglycyl)sulfonimidoyl)phenyl)-6-(trifluoromethyl)nicotinamide] | ≤ 5 | ≤ 5
13 | C[S@@](=N)(=O)c1cccc(NC(=O)c2cc(Cl)c(C(F)(F)F)cc2N2CCO[C@@H](C(F)(F)F)C2)c1 [Example 216, 5-chloro-N-(3-((R)—S-methylsulfonimidoyl)phenyl)-4-(trifluoromethyl)-2-((R)-2-(trifluoromethyl)morpholino)benzamide] | 50 to 100 | 50 to 100
14 | Cc1nc(N2CCC3(CC2)CC3)c(C(=O)Nc2cccc([S@](C)(=N)=O)c2)cc1Cl [Example 26, (R)-5-Chloro-6-methyl-N-(3-(S-methylsulfonimidoyl)phenyl)-2-(6-azaspiro[2.5]octan-6-yl)nicotinamide] | ≤ 5 | ≤ 5
15 | Cc1c(-c2cnn(C)c2)ccc(N2CCCC(F)(F)CC2)c1C(=O)Nc1cccc([S@](C)(=N)=O)c1 [Example 78, (R)-6-(4,4-difluoroazepan-1-yl)-2-methyl-3-(1-methyl-1H-pyrazol-4-yl)-N-(3-(S-methylsulfonimidoyl)phenyl)benzamide] | > 200 | > 200
16 | Cc1noc(C)c1-c1cnc(N2CCCC(F)(F)CC2)c(C(=O)Nc2cccc([S@](C)(=N)=O)c2)c1C [Example 156, (R)-2-(4,4-difluoroazepan-1-yl)-5-(3,5-dimethylisoxazol-4-yl)-4-methyl-N-(3-(S-methylsulfonimidoyl)phenyl)nicotinamide] | > 200 | > 200

Further lines, results first:

Row | IC50 [1] [nM] | IC50 [2] [nM] | SMILES
17 | 5 to 50 | 5 to 50 | Cc1c(-c2ccc(C(F)F)cc2)nnc(N2CCCC(F)(F)CC2)c1C(=O)Nc1cccc([S@](C)(=N)=O)c1 [Example 167, (R)-3-(4,4-difluoroazepan-1-yl)-6-(4-(difluoromethyl)phenyl)-5-methyl-N-(3-(S-methylsulfonimidoyl)phenyl)pyridazine-4-carboxamide]
18 | 100 to 200 | 100 to 200 | Cc1c(C(F)(F)F)nnc(N2CCCCCC2)c1C(=O)Nc1cccc([S@@](C)(=N)=O)c1 [Example 11, (S)-3-(azepan-1-yl)-5-methyl-N-(3-(S-methylsulfonimidoyl)phenyl)-6-(trifluoromethyl)pyridazine-4-carboxamide]
19 | 5 to 50 | 5 to 50 | Cc1ncc(-c2cnc(N3CCCC(F)(F)CC3)c(C(=O)Nc3cccc([S@](C)(=N)=O)c3)c2C)o1 [Example 178, (R)-2-(4,4-difluoroazepan-1-yl)-4-methyl-5-(2-methyloxazol-5-yl)-N-(3-(S-methylsulfonimidoyl)phenyl)nicotinamide]
20 | 5 to 50 | 5 to 50 | Cc1c(C(F)(F)F)nnc(N2CCCC(F)(F)CC2)c1C(=O)Nc1cccc([S@](C)(=N)=O)c1 [Example 28, (R)-3-(4,4-Difluoroazepan-1-yl)-5-methyl-N-(3-(S-methylsulfonimidoyl)phenyl)-6-(trifluoromethyl)pyridazine-4-carboxamide]
21 | ≤ 5 | ≤ 5 | Cc1nc(N2CCCC(F)(F)CC2)c(C(=O)Nc2cccc([S@](C)(=N)=O)c2)cc1Cl [Example 16, (R)-5-chloro-2-(4,4-difluoroazepan-1-yl)-6-methyl-N-(3-(S-methylsulfonimidoyl)phenyl)nicotinamide]
22 | ≤ 5 | ≤ 5 | Cc1c(Br)c(C(F)(F)F)nc(N2CCCC(F)(F)CC2)c1C(=O)Nc1cccc([S@](C)(=N)=O)c1 [Example 130, (R)-5-bromo-2-(4,4-difluoroazepan-1-yl)-4-methyl-N-(3-(S-methylsulfonimidoyl)phenyl)-6-(trifluoromethyl)nicotinamide]
23 | ≤ 5 | ≤ 5 | Cc1c(C(=O)Nc2cccc([S@](C)(=N)=O)c2)c(N2CCCC(F)(F)CC2)nc(C(F)(F)F)c1-c1ccc(C#N)cc1 [Example 131, (R)-5-(4-cyanophenyl)-2-(4,4-difluoroazepan-1-yl)-4-methyl-N-(3-(S-methylsulfonimidoyl)phenyl)-6-(trifluoromethyl)nicotinamide]

Source: US20250154109A1, “SODIUM CHANNEL BLOCKING COMPOUNDS, DERIVATIVES THEREOF, AND METHODS OF THEIR USE” (LATIGO BIOTHERAPEUTICS, INC, priority 2022, published 2025)
